Several values for one entry are separate records, joined by “and”; a condition that tells them apart may be missing. Equal values may be shown once.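 Where inhibition never reached the appropriate level, the endpoint shown equals the highest concentration tested. Otherwise, values were interpolated linearly from a five-concentration, 48-hour dose response in 96-well plates. GI50 = concentration required for 50% inhibition of growth. Definition used: TGI = concentration required for complete inhibition of growth.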
Columns and labels:
Assay in all cases: NCI tumour cell line growth inhibition, 48 h
NCI-H23 lung = test system: NCI-H23 lung
A549 NSCLC = test system: A549 NSCLC
MALME-3M melanoma = test system: MALME-3M melanoma
OVCAR-3 ovarian = test system: OVCAR-3 ovarian
SR leukemia = test system: SR leukemia
CCRF-CEM leukemia = test system: CCRF-CEM leukemia
SF-539 CNS = test system: SF-539 CNS
UACC-257 melanoma = test system: UACC-257 melanoma
NCI/ADR-RES ovarian = test system: NCI/ADR-RES ovarian
CAKI-1 renal = test system: CAKI-1 renal

Structure (SMILES)	GI50 (NCI-H23 lung)	TGI (NCI-H23 lung)	GI50 (A549 NSCLC)	TGI (A549 NSCLC)	GI50 (MALME-3M melanoma)	TGI (MALME-3M melanoma)	GI50 (OVCAR-3 ovarian)	TGI (OVCAR-3 ovarian)	GI50 (SR leukemia)	TGI (SR leukemia)	GI50 (CCRF-CEM leukemia)	TGI (CCRF-CEM leukemia)	GI50 (SF-539 CNS)	TGI (SF-539 CNS)	GI50 (UACC-257 melanoma)	TGI (UACC-257 melanoma) [µM]	GI50 (NCI/ADR-RES ovarian) [µM]	TGI (NCI/ADR-RES ovarian)	TGI (CAKI-1 renal) [µM]	GI50 (CAKI-1 renal)
O=c1/c(=C\c2ccc(Br)cc2)sc2n1C(c1ccc(Br)cc1)C1=C(N=2)c2ccc3ccccc3c2OCC1 (centres undefined)	> 100 µM	> 100 µM	> 100 µM	> 100 µM	> 100 µM	> 100 µM	> 100 µM	> 100 µM	35.4 µM	> 100 µM	> 100 µM	> 100 µM	> 100 µM	> 100 µM	> 100 µM	> 100	> 100	> 100 µM		
Nc1nc(N)c2c(n1)CCC(S(=O)(=O)c1ccc3ccccc3c1)C2 (centres undefined)		> 100 µM		> 100 µM		42.7 µM		> 82.9 µM		17.8 µM		> 100 µM		> 100 µM		> 100		> 100 µM	> 100	
CCOc1ccc2c(c1)C(=O)c1c-2n(CCCN=[N+]=[N-])c(=O)c2cc([N+](=O)[O-])ccc12	0.997 µM	> 100 µM	10.2 µM	> 100 µM	15.4 µM	61.5 µM	20 µM	> 100 µM	0.176 µM	11.9 µM	0.442 µM	2.79 µM	3.88 µM	19 µM	96.4 µM	> 100	3.91	> 100 µM	89.2	5.71 µM
NC1(C(=O)N[C@@H](CCO)c2ccc(Cl)cc2)CCN(c2ncnc3[nH]ccc23)CC1	> 3.45 µM and 13.9 µM	> 100 µM	> 3.15 µM and 12 µM	> 92.1 µM	0.977 µM and 2.38 µM	> 3.54 µM and 18.7 µM	> 2.43 µM and 28 µM	> 100 µM	2.24 µM and 5.95 µM	> 10 µM and 39.5 µM	0.499 µM and 1.18 µM	> 58.4 µM	0.223 µM and 0.417 µM	2.42 µM and 13.2 µM	3.8 µM and 7.39 µM	> 100	> 100	> 100 µM	> 100	> 2.14 µM and 14.1 µM
COC(=O)[C@]12CC[C@@H](C)[C@H](C)[C@@H]1C1=CC[C@@H]3[C@@](C)(CC#N)C4=C(C[C@@]3(C)[C@]1(C)CC2)OC[C@]4(C)C=O	3.88 µM	40.7 µM	10.2 µM	25 µM	4.76 µM	27.8 µM	3.41 µM	12.2 µM	2.56 µM	7.44 µM	3.49 µM	16.9 µM	2.96 µM	16.6 µM	3.73 µM	18.3	4.26	38.9 µM	> 100	6.32 µM
CN(C)C1CN(C(=O)c2cc(-c3ccc4ncnc(N5CCc6cc(F)c(Cl)cc65)c4c3)cnc2N)C1	1.25 µM	> 100 µM	0.486 µM	> 100 µM	0.453 µM	3.66 µM	0.585 µM	5.2 µM	1.17 µM	> 100 µM	0.583 µM	> 100 µM	0.827 µM	5.07 µM	1.54 µM	> 28.1	1.71	> 100 µM	> 100	0.509 µM
O=C(CCN1CCCN(c2cnc3ccccc3n2)CC1)c1csc2ccccc12	20.8 µM	46.7 µM	> 100 µM	> 100 µM	18 µM	32.1 µM	18.9 µM	32.9 µM	24 µM	56.7 µM	12.5 µM	63.1 µM	18.9 µM	33.2 µM	26.1 µM	63.2	21.3	49.5 µM	31.7	17.8 µM
Nc1c(C(=O)Nc2cccc(C(F)(F)F)c2)sc2nc3c(cc12)CCCCCC3	2.39 µM	10.6 µM	1.77 µM	5.08 µM	3.54 µM	11.3 µM	2.17 µM	4.88 µM	3.77 µM	19 µM	5.73 µM	> 100 µM	1.71 µM	3.37 µM	4.37 µM	22.7	2.69	10.9 µM	10.2	2.49 µM
Fc1ccc(Nc2nc3nonc3nc2Nc2ccc(I)cc2)cc1	0.265 µM	1.31 µM	0.313 µM	11.2 µM	0.0939 µM	0.511 µM	0.319 µM	14.1 µM	0.252 µM	1.91 µM	0.22 µM	4.47 µM	0.275 µM	2.58 µM	0.207 µM	0.756	0.272	1.95 µM	14.7	0.251 µM
O=C(/C=C/C=C/c1ccc2c(c1)OCO2)N/N=C\c1ccc(O)cc1O	2.11 µM	10.6 µM	2.93 µM	33.8 µM	2.03 µM	10.5 µM	0.345 µM	12.8 µM	0.571 µM	> 100 µM	0.559 µM	17.9 µM	2.7 µM	11.6 µM	3.06 µM	15.9	1.29	7.6 µM	15.2	2.24 µM
Cc1c(C(=O)c2ccccc2)[n+](=O)c2cc(F)c(F)cc2n1[O-]	1.72 µM	3.16 µM	7.26 µM	30.9 µM	2.7 µM	7.76 µM	1.53 µM	3.04 µM	0.316 µM	5.24 µM	1.18 µM	2.89 µM	3.94 µM	12.9 µM	2.49 µM	6.1	1.76	3.23 µM	3.45	1.88 µM
CC1[C@@H]2CC=C3[C@H]4CCC5Cc6nc7c(nc6C[C@@]5(C)C4CC(=O)[C@]32CO[C@]12OC(C)(C)CC2O)CC1CC[C@@H]2C3=C[C@H]4O[C@@]5(O[C@@](C)(CO)C[C@@H]5O)C(C)[C@@]4(O)[C@]3(C)[C@@H](O)CC2[C@]1(C)C7 (some centres undefined)	0.00281 µM	0.275 µM and 0.0672 µM	0.00051 µM and 0.00133 µM	0.164 µM and 0.47 µM	0.00807 µM and 0.00577 µM	0.145 µM and 0.0648 µM	0.0713 µM and 0.498 µM	0.62 µM and 3.33 µM	0.000181 µM	0.00856 µM	0.000309 µM and 0.000365 µM	0.0114 µM and 0.00453 µM	0.00016 µM and 0.000365 µM		0.00426 µM	0.0211		0.561 µM and > 3.65 µM		
COc1cc(C(=O)NN=C2c3ccccc3-c3ccccc32)cc(OC)c1OC	3.94 µM	41.4 µM	3.26 µM	> 100 µM	2.45 µM	16.7 µM	2.33 µM	10.6 µM	0.339 µM	10.6 µM	3.53 µM	> 100 µM	2.1 µM	5.32 µM	3.33 µM	34.2	2.06	11.7 µM	7.92	2.14 µM
Nc1cc(N)c2nc(NCCc3ccc(Cl)c(Cl)c3)cnc2c1	19.9 µM	45.7 µM	17.7 µM	34.2 µM	3.44 µM	11.1 µM	2.05 µM	5.3 µM	3.9 µM	20.9 µM	2.02 µM	5.05 µM	15.4 µM	29.8 µM			20.5	39.7 µM	18.2	4.89 µM
CN(C)CCCCNc1ccc(NCCCCN(C)C)c2c1C(=O)c1c(O)ccc(O)c1C2=O	1.63 µM	2.98 µM	1.57 µM	2.94 µM	18.3 µM	33.5 µM	1.62 µM	2.97 µM	1.72 µM	5.01 µM			10.9 µM	24.6 µM	18.4 µM	32.3	1.62	3.08 µM	21.6	8.15 µM
Cc1cc(-c2cc(OC(=O)c3ccccc3)ccc2Cl)cc2nnc(Nc3ccc(OCCN4CCCC4)cc3)nc12	1.72 µM	3.66 µM	1.72 µM	3.29 µM	1.45 µM	2.93 µM	1.6 µM	2.97 µM	0.46 µM	2.48 µM			1.29 µM	2.57 µM	1.62 µM	3.14	1.86	4.1 µM	2.69	1.36 µM
COc1cc(C)[nH]c(=O)c1CNC(=O)c1c(C)n([C@H](C)C2CCN(CC(F)(F)F)CC2)c2ccccc12	> 100 µM	> 100 µM	87.4 µM	> 100 µM	87.8 µM	> 100 µM	43.3 µM	> 100 µM	51.8 µM	> 100 µM	50.4 µM	> 100 µM	67.4 µM	> 100 µM	54.2 µM	> 100	77.2	> 100 µM		
COC(=O)Nc1nc2ccc(C(=O)c3ccc(F)cc3)cc2[nH]1	1.12 µM	56.2 µM	0.468 µM	> 100 µM	0.193 µM	26.9 µM	0.0517 µM	0.211 µM	0.0442 µM	> 100 µM			0.242 µM	0.778 µM	68 µM	> 100	0.108	0.562 µM	> 36.4	2.34 µM

Reference: PubChem BioAssay (NCI)
